Here are results for five compounds from patent US20050148534A1, “Small molecule compositions and methods for increasing drug efficiency using compositions thereof” (priority 2003, published 2005).

One data set deals with T1, Topoisomerase II (Homo sapiens, UniProt P11388).
T1 construct: purchased TopoGEN Inc. (Columbus, Ohio) 1009-1
Put plainly: Topoisomerase II assay. Type of data set: biochemical. The conditions noted are these: doxorubicin and its conjugates; percent activity of Doxorubicin. On the procedure: In certain embodiments, activity of doxorubicin conjugates was assayed by monitoring alteration in the ability of Topoisomerase II, by electrophoresis, to catalyze the formation of relaxed conformation DNA from a super-coiled plasmid.
Specifically the kit was used to assay whether Doxorubicin conjugates altered the ability of Topoisomerase II to catalyze the formation of relaxed conformation DNA from a super-coiled plasmid. Doxorubicin conjugates were compared directly to Doxorubicin at 10, 3, 1, 0.3, 0.1 and 0.03 micromolar concentrations. The quantity of relaxed conformation DNA was quantified from an agarose gel on which is it is separated from the super-coiled DNA by standard electrophoresis. […] The results are presented in terms of percent activity of Doxorubicin.

The subject of data set [1] is Normal human foreskin fibroblasts (HFF). Put plainly: Cytotoxicity assay (monolayer), HFF. It is filed as cell-based. Particulars: Fibroblast. On the procedure:
(§1) Statistical Assoc., 81, 991-999, 1986.
(§2) Monolayer assays with tumor cell lines (MCF-7 breast carcinoma and HT-29 colorectal carcinoma from ATCC) were carried out in triplicate in 96-well plates with RPMI1640 medium containing 5% fetal bovine serum, 100 U/ml penicillin and 100 μg/ml streptomycin. Normal human foreskin fibroblasts (HFF #CC-2509) were from Cambrex and were cultured in FGM-2 medium. Exponentially growing cells (5,000 MCF-7 or HT-29; 1,500 HFF) were plated in 100 μl medium and incubated overnight (5% CO2, 37° C.). Compounds (20 pM to 20 μM final concentration, 6-8 doses) and vehicle (DMSO) controls were added and the incubation was continued for an additional 72 hours. Final cell density was determined by incubating cultures with 25 μl AlamarBlue reagent (BioSource, Camarillo, Calif.) for 4 hours, followed by determination of fluorescence at excitation of 544 nm and emission of 590 nm with a SpectroMax Gemini EM fluorescence plate reader (Molecular Devices, Sunnyvale, Calif.). EC50 values were generated from dose-response curves by a 4-parameter method using Softmax PRO software. Mean EC50s (±SD) represent the average of all tests carried out for all lots of a given compound. […] Statistical Assoc., 81, 991-999 (1986).

Data set [2] concerns MCF-7 breast carcinoma. Briefly: Cytotoxicity assay (monolayer), MCF-7. Particulars: Homo sapiens, MCF7. Type of data set: cell-based. On the procedure:
as §1, §2

The target in data set [3] is T2, Human thymidine kinase 1 (TK1) (Homo sapiens, UniProt P04183).
T2 construct: His tag (from pET28b(+)) (N); made in house; host or cells: E. coli BL21-codon plus
T2 sequence (P04183 1-234): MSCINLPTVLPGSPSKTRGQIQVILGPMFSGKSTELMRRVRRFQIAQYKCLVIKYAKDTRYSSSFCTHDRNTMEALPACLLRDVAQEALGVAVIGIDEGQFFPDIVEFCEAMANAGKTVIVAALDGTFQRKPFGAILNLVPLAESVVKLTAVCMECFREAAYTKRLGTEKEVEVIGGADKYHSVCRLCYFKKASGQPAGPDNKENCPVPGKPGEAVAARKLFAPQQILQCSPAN
Put plainly: Thymidine kinase coupled (kinetic) ATP depletion assay. Type of data set: biochemical. Particulars: initial velocity relative to thymidine; 100 μM conjugate. On the procedure: Thymidine kinase, viral thymidine kinase, TK-1 deoxycytidine kinase, and deoxyguanosine kinase activities are determined by subjecting a first end of a linker used in synthesizing linker-substrate constructs to a first test. The first test may involve observing ADP formation, an obligatory co-product of phospho group transfer from ATP which is catalyzed by the kinase to the C5′ hydroxyl group or its equivalent in the nucleoside or nucleoside analog. Formation of ADP is followed by a coupled enzyme assay well known in the art. ADP, formed from kinase phosphorylation, is used by pyruvate kinase to generate pyruvate from phosphoenolpyruvate which in turn is converted to lactate by lactate dehydrogenase. The lactate results in the consumption of NADH which is followed spectrophotometrically. The rate of nucleoside phosphorylation is then directly related to the rate of decrease in the observed NADH signal.
TK1 was amplified using PCR with forward primer 5′-[…]-3′ and reverse primer 5′-[…]-3′. The PCR product was digested with Nde I and Hind III. An N-terminal His-tagged TK1 construct, TK1/pET28b(+), was generated by subcloning TK1 into the Nde I and Hind III sites of prokaryotic expression vector pET28b (+) (Novagen, San Diego, Calif.). TK1 was expressed from TK1/pET28b(+) using E. coli strain BL21-codon plus (Stratagene, San Diego, Calif.) and purified by Ni column chromatography.
A coupled (kinetic) ATP depletion assay was developed to measure thymidine kinase activity. The reaction contained 100 mM Tris HCl, pH 7.5, 20 mM MgCl2, 100 mM KCl, 0.4 mM PEP, 0.2 mM NADH, Pyruvate Kinase (0.7 units)/Lactate Dehydrogenase (1.0 unit) (Sigma #PO294), 2.5-10 μg Thymidine Kinase, 100 μM thymidine or thymidine-drug conjugate in a volume of 75 μl. ATP (5 mM in 25 μl H2O) was added to initiate the reaction and the velocity of ATP depletion was monitored at 340 nm continuously for 15 minutes.

Another data set concerns HUVEC. Briefly: Cytotoxicity assay (monolayer), HUVEC. It is filed as cell-based. The conditions noted are these: Homo sapiens, read-out: HUVEC (EC50 Ave) ML.
Data set [4] concerns HT-29 colorectal carcinoma. Briefly: Cytotoxicity assay (monolayer), HT-29. Type of data set: cell-based. Particulars: Homo sapiens. On the procedure:
as §1, §2

Data set [5] relates to breast carcinoma, colon carcinoma and leukemia. Briefly: Cytotoxicity of drug-thymidine conjugates (Example 22). It is filed as cell-based.
Data set [6] has as its system HT-29 colorectal carcinoma. Put plainly: Cytotoxicity assay (soft agar), HT-29. Particulars: Homo sapiens.
Another data set concerns HT29. Put plainly: Cytotoxicity assay, HT29 SSA (SSA not explained). It is filed as cell-based. The conditions noted are these: Homo sapiens, HT-29; read-out: HT29 (EC50 Ave) SSA.
The test system of data set [7] is MCF-7 breast carcinoma. Briefly: Cytotoxicity assay (soft agar), MCF-7. The conditions noted are these: Homo sapiens.
The test system of a further data set is MCF7. Put plainly: Cytotoxicity assay, MCF7 SSA (SSA not explained). Type of data set: cell-based. Particulars: Homo sapiens.
Another data set deals with tubulin. Put plainly: Fluorescence-based microtubule polymerization assay (MPA). Type of data set: biochemical. Particulars: mean percentage of paclitaxel or vinblastine activity; 0.75-10 micromolar. A digest of the protocol: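 Tubulin polymerization was followed by fluorescence (ex 360/em 405 nm) in a commercial kit with 1 mg/ml BSA added to every assay, glycerol being omitted for paclitaxel conjugates. Parent drugs and conjugates were tested at 0.75, 1.5, 3 and 10 micromolar final. Curves from the linear range of the dose responses were compared.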

Data set [8] in a line: Serum stability in RPMI1640 medium containing 10% fetal bovine serum. Type of data set: in vitro ADME. On the procedure:
The stability of conjugates was measured in RPMI1640 cell culture medium containing 10% fetal bovine serum. The serum-containing medium was pre-warmed at 37° C. for 3 min prior to addition of test articles. Test articles, prepared in DMSO as 5 mM stocks, were added to the cell culture media to a final concentration of […]. Aliquots ([…]) were withdrawn in triplicate at 0, 4, 8, 24 and 72 hours and combined with the same volume of ice-cold acetonitrile to terminate the reaction. The mixture was centrifuged at 2,000×g for 10 minutes. One part of the supernatant was mixed with four parts of deionized water to bring down the percentage of organic solvent. The diluted samples were then assayed by LC/MS for the test article. The natural log of the percent remaining was plotted versus time. A linear fit was used to determine the rate constant. The fit was truncated after the percent of remaining test article was less than 10%. The elimination half-lives associated with the disappearance of test articles were determined to compare their relative stability. The assays were carried out by Absorption Systems (Exton, Pa.).

Setting [9] is: monolayer, 72 hours, AlamarBlue, read-out: HFF (EC50 Ave) ML.
The mark [10] stands for this setting: monolayer, 72 hours, AlamarBlue, read-out: MCF7 (EC50 Ave) ML.
The mark [11] stands for this setting: monolayer, 72 hours, AlamarBlue, read-out: HT29 (EC50 Ave) ML.
Setting [12] is: HT-29, read-out: HT29 (EC50 Ave) SA.
Where [13] appears, read: MCF7, read-out: MCF7 (EC50 Ave) SA.

Each structure is given as a SMILES string. Like-named read-outs stand apart in the source and are kept apart here.

T1 sequence (P11388 whole entry): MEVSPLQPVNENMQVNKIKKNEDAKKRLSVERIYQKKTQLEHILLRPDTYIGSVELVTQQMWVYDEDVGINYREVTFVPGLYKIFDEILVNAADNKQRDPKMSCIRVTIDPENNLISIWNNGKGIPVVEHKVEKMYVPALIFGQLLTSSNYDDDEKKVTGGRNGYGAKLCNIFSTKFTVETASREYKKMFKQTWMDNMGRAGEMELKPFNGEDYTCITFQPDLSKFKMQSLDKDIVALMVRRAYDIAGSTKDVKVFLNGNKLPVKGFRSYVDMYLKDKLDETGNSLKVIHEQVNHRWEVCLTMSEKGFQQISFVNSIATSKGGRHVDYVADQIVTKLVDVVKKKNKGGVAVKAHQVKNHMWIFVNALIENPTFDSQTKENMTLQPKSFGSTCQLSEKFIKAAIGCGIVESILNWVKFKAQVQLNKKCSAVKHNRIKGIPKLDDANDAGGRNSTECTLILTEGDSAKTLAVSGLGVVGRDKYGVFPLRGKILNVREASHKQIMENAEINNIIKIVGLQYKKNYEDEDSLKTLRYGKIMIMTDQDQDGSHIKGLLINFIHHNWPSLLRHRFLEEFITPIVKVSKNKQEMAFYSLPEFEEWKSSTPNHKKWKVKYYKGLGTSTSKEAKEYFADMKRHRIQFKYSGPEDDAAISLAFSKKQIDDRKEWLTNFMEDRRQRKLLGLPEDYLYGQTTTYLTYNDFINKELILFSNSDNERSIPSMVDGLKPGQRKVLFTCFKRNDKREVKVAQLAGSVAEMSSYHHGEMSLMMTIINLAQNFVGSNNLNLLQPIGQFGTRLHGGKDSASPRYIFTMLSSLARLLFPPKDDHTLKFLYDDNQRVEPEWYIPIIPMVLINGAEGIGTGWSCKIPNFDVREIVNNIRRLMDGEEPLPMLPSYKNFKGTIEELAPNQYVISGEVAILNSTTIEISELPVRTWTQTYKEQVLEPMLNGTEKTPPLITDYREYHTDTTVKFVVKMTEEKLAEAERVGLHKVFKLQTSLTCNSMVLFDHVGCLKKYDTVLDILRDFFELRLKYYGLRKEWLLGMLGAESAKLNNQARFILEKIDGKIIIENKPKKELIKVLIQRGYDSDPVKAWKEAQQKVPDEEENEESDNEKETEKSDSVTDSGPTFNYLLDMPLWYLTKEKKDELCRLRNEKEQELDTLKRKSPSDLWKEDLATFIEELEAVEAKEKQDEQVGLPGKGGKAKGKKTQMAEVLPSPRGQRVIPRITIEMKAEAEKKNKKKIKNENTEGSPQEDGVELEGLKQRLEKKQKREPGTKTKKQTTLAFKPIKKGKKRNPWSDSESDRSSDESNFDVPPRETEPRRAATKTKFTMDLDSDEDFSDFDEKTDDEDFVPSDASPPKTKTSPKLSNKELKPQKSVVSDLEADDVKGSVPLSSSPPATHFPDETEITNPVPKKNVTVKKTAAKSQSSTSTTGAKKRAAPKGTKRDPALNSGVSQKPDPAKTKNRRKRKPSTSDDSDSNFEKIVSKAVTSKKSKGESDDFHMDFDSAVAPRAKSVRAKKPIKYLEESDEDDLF

Regarding `COc1cccc2c1C(=O)c1c(O)c3c(c(O)c1C2=O)C[C@@](O)(C(=O)CO)C[C@@H]3OC1CC(NCCCN2C(=O)CC(SCCC(=O)NCCCCCCn3c(=O)c(C)cn([C@H]4CC(O)[C@@H](CO)O4)c3=O)C2=O)C(O)C(C)O1` (stereo partly shown) [DOX-3′ALK-MALa(17)-N3-THY], at Topoisomerase II, the “Ave. MPA Act (doxorubicin)” value is “A (A<60)”. Further, the EC50 (in [1] (setting [9]); with MCF-7 breast carcinoma [2] (setting [10]); in the data set with HUVEC) was more than 1000 nM each time. Besides, the “Ave. TK1 Kinase Act.” value in data set [3] is listed as “A (A<20)”.
On to `CC[C@]1(O)C[C@@H]2CN(CCc3c([nH]c4ccccc34)[C@@](C(=O)OC)(c3cc4c(cc3OC)N(C)[C@H]3[C@@](O)(C(=O)OC)[C@H](OC(C)=O)[C@]5(CC)C=CCN6CC[C@]43[C@@H]65)C2)C1` [Vinblastine], for which the EC50 (in general, the concentration at which the effect is half-maximal) in [4] (setting [11]) is less than 100 nM; in data set [5], 1 to 2 nM; in data set [6] (setting [12]), less than 100 nM; in the data set on HT29, less than 100 nM; in the data set with MCF-7 breast carcinoma [7] (setting [13]), less than 100 nM; in the data set with MCF7, less than 100 nM. Besides, the EC50 (in [1] (setting [9]); in the data set on MCF-7 breast carcinoma [2] (setting [10])) was less than 100 nM each time. For the same compound, the “Ave. MPA Act” value in the data set with tubulin is “C (C>100)”. The “Ave. TK1 Kinase Act.” value in data set [3] is listed as “A (A<20)”.
`COc1cccc2c1C(=O)c1c(O)c3c(c(O)c1C2=O)C[C@@](O)(C(=O)CO)C[C@@H]3O[C@H]1C[C@H](N)[C@H](O)[C@H](C)O1` [Doxorubicin]: the concentration giving a half-maximal response (EC50) is 100 to 1000 nM in [4] (setting [11]), less than 100 nM in data set [1] (setting [9]), less than 100 nM with MCF-7 breast carcinoma [2] (setting [10]) and less than 100 nM in the data set with HUVEC. Further, the “Ave. MPA Act (doxorubicin)” value on Topoisomerase II is reported as “C (C>100)”. For the same compound, in data set [3], the “Ave. TK1 Kinase Act.” value is listed as “A (A<20)”.
Turning to `CC[C@]1(O)CC2CN(CCc3c([nH]c4ccccc34)[C@@](C(=O)OC)(c3cc4c(cc3OC)N(C)[C@H]3C(O)(C(=O)NCCOCCOCCOCCN)[C@H](O)[C@]5(CC)C=CCN6CCC43[C@@H]65)C2)C1` (stereo partly shown) [VBL-3Am-PEG(11)-NH2, deacetylvinblastine-3-(amido-PEG-amine)], the EC50 in data set [4] (setting [11]) was 100 to 1000 nM; in [6] (setting [12]) it was less than 100 nM; in the data set on HT29 it was less than 100 nM; in the data set on MCF-7 breast carcinoma [7] (setting [13]), less than 100 nM; in the data set with MCF7, less than 100 nM; in data set [1] (setting [9]), less than 100 nM. Further, the figures for the concentration for a half-maximal effect (EC50) in the data set on MCF-7 breast carcinoma [2] (setting [10]) and in the data set on HUVEC were 100 to 1000 nM and less than 100 nM, respectively. The “Ave. MPA Act” value with tubulin is listed as “B (B=60-100)”.
Turning to `CC(=O)O[C@H]1C(=O)C2(C)[C@@H](OC(=O)NCCCCCCn3c(=O)c(C)cn([C@H]4CC(O)[C@@H](CO)O4)c3=O)CC3OC[C@]3(OC(C)=O)[C@H]2[C@H](OC(=O)c2ccccc2)[C@]2(O)C[C@H](OC(=O)[C@H](O)[C@@H](NC(=O)c3ccccc3)c3ccccc3)C(C)=C1C2(C)C` (stereo partly shown) [PXL-7Ca-ALK(6)-N3-THY], the EC50 is 258 ± 129 nM in [4] (mean ± SD, read-out: HT-29 Monolayer EC50); 100 to 1000 nM in data set [4] (setting [11]); 100 to 1000 nM in data set [6] (setting [12]); 120 ± 4 nM in data set [6] (HT-29, read-out: HT-29 Soft Agar EC50); less than 100 nM with MCF-7 breast carcinoma [7] (setting [13]); 40 ± 41 nM in the data set on MCF-7 breast carcinoma [7] (MCF7, read-out: MCF-7 Soft Agar EC50). Also, the EC50 in data set [1] (mean ± SD, read-out: HFF Monolayer EC50) is 457 ± 310 nM; in [1] (setting [9]), 100 to 1000 nM; in the data set on MCF-7 breast carcinoma [2] (mean ± SD, read-out: MCF-7 Monolayer EC50), 120 ± 73 nM; in the data set with MCF-7 breast carcinoma [2] (setting [10]), less than 100 nM; with HUVEC it was 100 to 1000 nM. Moreover, the “Relative Percent Remaining at 0 hr” value in [8] (37° C., medium with 10% fetal bovine serum, 0 hr) was found to be 100%. For the same compound, the “Relative Percent Remaining at 4 hr” value in data set [8] (37° C., medium with 10% fetal bovine serum, 4 hr) is given as 84%. The “Relative Percent Remaining at 8 hr” value in [8] (37° C., medium with 10% fetal bovine serum, 8 hr) turned out to be 90%. In addition, in data set [8] (37° C., medium with 10% fetal bovine serum, 24 hr), the “Relative Percent Remaining at 24 hr” value was determined as 80%. The “Relative Percent Remaining at 72 hr” value in [8] (37° C., medium with 10% fetal bovine serum, 72 hr) was 38%. In addition, the half-life (as a rule, the time in which the quantity being followed falls by half) in data set [8] (bovine, serum) is 55 h. For the same compound, the “Ave. MPA Act” value with tubulin was “B (B=60-100)”. In data set [3], the “Ave. TK1 Kinase Act.” value is on record as “A (A<20)”.
